Measured values as given in EP2371816A1, “Aminocyclohexenone, their preparation and use as medicament against oxidative stress” (ABIOGEN PHARMA S.p.A., priority 2010, dated 2011).

What was measured:
[1] = system: cerebral oxidative stress induced in mice by doxorubicin; assay: In vivo assay of cerebral oxidative stress induced in mice by doxorubicin; details: for Brain/BWi its own / CAT/pr its own / GPX/pr its own / GSH/pr its own / GST/pr its own / Prot. Hmg its own / Prot. Ox/pr its own / SOD/pr its own / Brain/BWi vehicle / CAT/pr vehicle / GPX/pr vehicle / GSH/pr vehicle / GST/pr vehicle / Prot. Hmg vehicle / Prot. Ox/pr vehicle / SOD/pr vehicle: % inhibition relative to variation due to doxorubicin alone, oxidized animals; for Brain/BWi its own / CAT/pr its own / GPX/pr its own / GSH/pr its own / GST/pr its own / Prot. Hmg its own / Prot. Ox/pr its own / SOD/pr its own: as function of its own control; for Brain/BWi vehicle / CAT/pr vehicle / GPX/pr vehicle / GSH/pr vehicle / GST/pr vehicle / Prot. Hmg vehicle / Prot. Ox/pr vehicle / SOD/pr vehicle: as function of vehicle; for Brain/BWi / CAT/pr / GPX/pr / GSH/pr / GST/pr / Prot. Hmg / Prot. Ox/pr / SOD/pr: % variation relative to the vehicle, 50 mg/kg IP x3 days (D = doxorubicin alone); for Brain/BWi / CAT/pr / GPX/pr / GSH/pr / GST/pr / Prot. Hmg / Prot. Ox/pr / SOD/pr / Mean % variation relative to the vehicle: healthy animals; for Mean % variation relative to the vehicle: 50 mg/kg IP days 0, 1 and 2, mean over all parameters, approximate safety index (D = doxorubicin alone); for overall percentage inhibition: with respect to Its own vehicle
Procedure: The assay was carried out on compounds (1) and (3)-(6) and on edaravone (E) as comparative compound.
10 mice were used for each treatment group. For each compound 50 mg/kg were administered intraperitoneally (IP) for three consecutive days (day 0, 1 and 2); half the animals (5) also received IP 16.7 mg/kg of doxorubicin immediately after the first treatment (day 0). On the day after the last administration (day 3) the animals were killed by neck dislocation and the brains were removed, weighed and frozen in liquid nitrogen.
For the analyses of oxidative stress, 100 mg/ml of brain homogenate was prepared in Hebe buffer (pH 7.4 EDTA/HEPES^(**)) containing a mixture of enzyme inhibitors (Leupeptin, Pepstatin, Aprotinin, BHA). • ^(*) Hypotonic Extraction Buffer • ^(**) 4-2-hydroxyethyl-1-piperazinyl-ethanesulphonic acid
The evaluation parameters were: • BrW/BWi: ratio between final brain weight and initial body weight (day 0); • Prot. Hmg: total proteins in the homogenate (BCA method, i.e. bicinchoninic acid); • Prot. Ox: oxidized proteins in the Hmg by means of a colorimetric method using […] (DNPH); • GSH: reduced glutathione in the supernatant (sn) of the Hmg, obtained after precipitation with metaphosphoric acid (MPA), by means of a colorimetric method using […] (DTNB); • CAT: catalase in the Hmg by a colorimetric method using potassium dichromate; • SOD: superoxide dismutase by a colorimetric method using SOD Reagent (xanthine, EDTA, nitroblue tetrazole, Na2CO3, BSA, i.e. bovine serum albumin); • GST: glutathione S-transferase in the supernatant by a colorimetric method using chlorodinitrobenzene (CDNB) and GSH; and • GPx: glutathione peroxidase in the supernatant after addition of GSH and tert butyl hydroperoxide (t-BuOOH), heating and precipitation with MPA; followed by GSH method with DTNB.
All the parameters, with the exclusion of Brain/BWi and Prot. Hmg, were normalized for total Hmg proteins (Table 3). The D value standard deviations and the % incidence relative to V are given in italics.
The mean % effect, on all the parameters simultaneously, of the triple treatment in the healthy animals, as mean percentage variation relative to the vehicle (table 4). This value is useful as an approximate safety index of the oxidative state of the brain, i.e. the capacity of the compounds of the invention not to alter cerebral homeostasis in healthy animals.
The effect of the tested compounds on the "oxidized" animals was given as % inhibition relative to the percentage variation due to doxorubicin alone. The effect of the compounds on the oxidized animals can be expressed both as a function of the values of the vehicle (healthy, vehicle only) and as a function of the value of its own control (healthy, compound only): • Vehicle: percentage [(Compound+D)/V]x100/[(V+D)/V]x100 • Its own: percentage [(Compound+D)/Compound]x100/[(V+D)/V]x100

[2] = pH at the semi-neutralization point of titration (pKa); type: physicochemical; details: titration with 0.1 N NaOH or HCl
Procedure: The following equipment was used during the implementation of all the examples: • for melting point determination a Buchi B-540 instrument was used; • for pH determination at the semi-neutralization point of titration (pKa) a Mettler Toledo DL-50 instrument was used with a 0.1 N xNaOH or HCl solution; • the ^1H-NMR spectra were recorded at 300 MHz and the ^13C-NMR spectra were recorded at 75 MHz using a Varian Unity 300 instrument; • spectrophotometric measurements were carried out using a Lambda Perkin Elmer 15 UV/Vis spectrophotometer for the DPPH assay and a Wallac Victor 1420 multilabel counter spectrophotometer.

[3] = mouse, in vivo
Procedure: The ability of the compounds of the invention to penetrate the brain was investigated by measuring their brain/plasma (B/P) concentration ratio in mice following intraperitoneal administration.
Female CD-1 mice were used (n=3 for each time period) and received the compounds of the invention by intraperitoneal administration, in 25 mg/kg doses in a 0.5% NaHCO3 buffer (pH 8.3). At predefined intervals following said administration, i.e. 5, 15, 30 and 60 minutes, the mice were killed and both plasma and total brain tissue were collected.
Specifically, after anaesthesia with ether, the animals were bled by blood withdrawal from the abdominal aorta then immediately decapitated. The blood samples were collected into plasma separator tubes containing Li-Heparin as anticoagulant and centrifuged. The resulting plasma was then stored at -20 °C. The brain was rapidly removed from the cranium and weighed, subsequently frozen and stored at -20 °C before treatment by homogenization and HPLC analysis.
The plasma was thawed and mixed with an equal volume of the extraction solution. This extraction solution was a mixture of aqueous and organic solvents whose composition had been previously determined by HPLC undertaken for each analyte.
1 ml of solution was then extracted by adding 20 µl of 70% HClO4 then centrifuged at 15,500g for 5 minutes and injected into the HPLC.
Each brain was thawed and homogenized with the extraction solution to provide a final composition of 4 ml/1g of tissue by means of an Ultra-Turrax blender and sonicated for 5 minutes. After centrifugation of the homogenate at 15,500g for 5 minutes, the resulting solution was treated with HClO4, as indicated for the plasma.
Specific chromatographic conditions had been developed for each analyte, the calibration curve being constructed for plasma and brain homogenate.

| Compound | Brain/BWi its own [1] [%] | CAT/pr its own [1] [%] | GPX/pr its own [1] [%] | GSH/pr its own [1] [%] | GST/pr its own [1] [%] | Prot. Hmg its own [1] [%] | Prot. Ox/pr its own [1] [%] | SOD/pr its own [1] [%] | Brain/BWi vehicle [1] [%] | CAT/pr vehicle [1] [%] | GPX/pr vehicle [1] [%] | GSH/pr vehicle [1] [%] | GST/pr vehicle [1] [%] | Prot. Hmg vehicle [1] [%] | Prot. Ox/pr vehicle [1] [%] | SOD/pr vehicle [1] [%] | Brain/BWi [1] [%] | CAT/pr [1] [%] | GPX/pr [1] [%] | GSH/pr [1] [%] | also measured |
| --- | --- | --- | --- | --- | --- | --- | --- | --- | --- | --- | --- | --- | --- | --- | --- | --- | --- | --- | --- | --- | --- |
| CC1(C)CC(=O)C=C(NCCN2CCCCC2)C1 [(1), 5,5-dimethyl-3-(2-(piperidin-1-yl)ethylamino)cyclohex-2-enone] | -76.8 | -32.6 | -16.2 | -8.8 | 5.5 | -16.9 | -95.9 | -9.1 | -33.3 | 77.3 | 22.2 | -2.4 | 16.5 | 22.9 | -82.6 | 29.4 | -3.2 | -7.1 | -7.6 | -1.5 | GST/pr [1]: -2.3%; Prot. Hmg [1]: 5.3%; Prot. Ox/pr [1]: 1.4%; SOD/pr [1]: -5.9%; Mean % variation relative to the vehicle [1]: -4.3%; overall percentage inhibition [1]: greater than 40%; Acid dissociation constants: pKa1 [2]: 2.82; Acid dissociation constants: pKa2 [2]: 8.64; bioavailability at the target site / crossing of the blood-brain barrier [3]: particularly bioavailable, as well as able to cross the blood-brain barrier in effective amounts |
| O=C1C=C(NCCN2CCCCC2)CC(c2ccccc2)C1 (centres unmarked) [(3), 5-phenyl-3-(2-(piperidin-1-yl)ethylamino)cyclohex-2-enone] | -30.4 | -48.5 | 23.2 | 0.0 | 37.4 | -101.2 | -116.3 | 107.7 | -76.8 | 3.0 | -20.2 | -7.2 | -48.4 | -32.5 | -107.0 | 86.7 | 1.0 | -9.2 | 2.4 | 0.4 | GST/pr [1]: 4.1%; Prot. Hmg [1]: 2.3%; Prot. Ox/pr [1]: -7.8%; SOD/pr [1]: 1.1%; Mean % variation relative to the vehicle [1]: -1.3%; overall percentage inhibition [1]: greater than 40%; Acid dissociation constants: pKa1 [2]: 2.82; Acid dissociation constants: pKa2 [2]: 8.46; bioavailability at the target site / crossing of the blood-brain barrier [3]: particularly bioavailable, as well as able to cross the blood-brain barrier in effective amounts |
| CC1(C)CC(=O)C=C(NN2CCCCC2)C1 [(6), 5,5-dimethyl-3-(piperidin-1-ylamino)cyclohex-2-enone] | -18.8 | -28.8 | -100.0 | -72.8 | -36.3 | -97.6 | 45.9 | -60.8 | 10.1 | 6.8 | -34.3 | -10.4 | -18.7 | -8.4 | 21.5 | -2.1 | -2.5 | -6.4 | -8.7 | -9.6 | GST/pr [1]: -2.5%; Prot. Hmg [1]: 8.4%; Prot. Ox/pr [1]: -5.6%; SOD/pr [1]: -10.8%; Mean % variation relative to the vehicle [1]: -5.4%; overall percentage inhibition [1]: greater than 40%; pKa ([2]; read-out: Acid dissociation constant: pKa): 2.62; bioavailability at the target site / crossing of the blood-brain barrier [3]: particularly bioavailable, as well as able to cross the blood-brain barrier in effective amounts |
